Experiments:
[1] = tested on: MDA-MB-231 cell line; assay: Inhibition of proliferation of MDA-MB-231 cancer cells (Cell Titer-Glo); type: cell-based; details: Homo sapiens, 72 hours
Procedure, shortened: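 Cells seeded at 2,000/well and exposed 72 h to 11 concentrations of compound (3-fold dilutions, final 10.000000 down to 0.000169 μM) in DMEM or RPMI. Viability read by Cell Titer-Glo luminescence after 10 min at room temperature; GI50 calculated from luminescence.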

[2] = target: T1, human GST-CLK1 (Homo sapiens, UniProt P49759); assay: GST-CLK1 enzyme inhibition, ADP-Glo kinase assay; type: biochemical; details: ATP 10 μM, GST-CLK1 129-end
T1 construct: purified human GST-CLK1 (129-end, SignalChem) enzyme; purchased SignalChem
T1 sequence (P49759 129-484 limits assumed): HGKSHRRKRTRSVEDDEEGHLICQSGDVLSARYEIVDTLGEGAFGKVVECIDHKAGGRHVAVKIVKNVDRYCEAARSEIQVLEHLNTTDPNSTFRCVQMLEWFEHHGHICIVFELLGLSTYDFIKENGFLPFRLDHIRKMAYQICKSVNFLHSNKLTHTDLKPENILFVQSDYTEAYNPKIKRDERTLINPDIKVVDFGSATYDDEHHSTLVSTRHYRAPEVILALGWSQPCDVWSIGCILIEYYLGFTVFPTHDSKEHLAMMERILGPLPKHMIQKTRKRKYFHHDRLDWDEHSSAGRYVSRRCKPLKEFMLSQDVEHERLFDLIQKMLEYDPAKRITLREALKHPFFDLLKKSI
Procedure, shortened: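 Human GST-CLK1 (129-end, 3 ng) reacted with substrate and 10 μM ATP for 1 h at 25° C in 40 mM Tris-HCl pH 7.4, 20 mM MgCl2, 0.5 mg/mL BSA, 50 μM DTT. ADP-Glo luminescence was normalised to solvent control; IC50 (nM) from 3 data sets.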

[3] = tested on: human DYRK1A and tau; assay: Inhibition of tau phosphorylation, ClariCELL Kinase Cell-Based Assay, HEK 293 cells expressing human DYRK1A and tau; details: for inhibition at 1 µM: HEK293, read-out: % inhibition at 1 uM, tau phosphorylation, compound 1 uM; for inhibition at 0.25 µM / inhibition at 0.5 µM: HEK293, tau phosphorylation; for inhibition at 0.25 µM: compound 0.25 uM; for inhibition at 0.5 µM: compound 0.5 uM
Procedure, shortened: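 Cell-based service assay: HEK 293 cells transiently expressing human DYRK1A and tau were treated with compound and lysed. Released tau was plate-captured and its phosphorylation quantified by ELISA with a phospho-tau-specific antibody.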

| GI50 [1] | IC50 [2] | SMILES | inhibition at 1 µM [3] | inhibition at 0.25 µM [3] | inhibition at 0.5 µM [3] |
| --- | --- | --- | --- | --- | --- |
| – | 301 to 1000 nM | O=C(c1ccc(Nc2nc(NC3CCCCC3)c3c(C(F)(F)F)c[nH]c3n2)c2c1OCCO2)N1CCN(C2COC2)CC1 [Example 415, (8-((4-(cyclo-hexylamino)-5-(trifluoromethyl)-7H-pyrrolo[2,3-d]pyrimidin-2-yl)amino)-2,3-dihydrobenzo[b] [1,4]dioxin-5-yl) (4-(oxetan-3-yl)piperazin-1-yl)methanone] | – | – | – |
| 301 to 1000 nM | 301 to 1000 nM | COc1cc(S(=O)(=O)N2CCC(N3CCOCC3)CC2)ccc1Nc1nc(C2CC2)c2c(C(F)(F)F)c[nH]c2n1 [Example 226] | – | – | – |
| – | < 100 nM | O=C(c1ccc(Nc2nc(NC3CC3)c3c(C(F)(F)F)c[nH]c3n2)c2c1OCCO2)N1CCN(C2COC2)CC1 [Example 405, (8-((4-(cyclo-propylamino)-5-(trifluoromethyl)-7H-pyrrolo[2,3-d]pyrimidin-2-yl)amino)-2,3-dihydrobenzo[b] [1,4]dioxin-5-yl) (4-(oxetan-3-yl)piperazin-1-yl)methanone] | 70.7% | 17.5% | 44% |
| 301 to 1000 nM | 301 to 1000 nM | COc1cc(S(=O)(=O)N2CCOCC2)ccc1Nc1nc(C2CC2)c2c(C#N)c[nH]c2n1 [Example 223, 4-cyclopropyl-2-((2-methoxy-4-(morpholinosulfonyl)phenyl)amino)-7H-pyrrolo[2,3-d]pyrimidine-5-carbonitrile] | – | – | – |
| – | < 100 nM | CCCNc1nc(Nc2ccc(C(=O)N3CCC(N4CCOCC4)CC3)c3c2OCCO3)nc2[nH]cc(C#N)c12 [Example 138, 2-((8-(4-morpholinopiperidine-1-carbonyl)-2,3-dihydrobenzo[b][1,4]dioxin-5-yl)amino)-4-(propylamino)-7H-pyrrolo[2,3-d]pyrimidine-5-carbonitrile] | – | – | – |
| – | < 100 nM | CCN1CCP(=O)(c2ccc(Nc3nc(C4CC4)c4c(C#N)c[nH]c4n3)c(OC)c2)CC1 [Example 261] | – | – | – |
| – | 301 to 1000 nM | COc1cc(P2(=O)CCN(C3CC3)CC2)ccc1Nc1nc(NC2CCCC2)c2c(C(F)(F)F)c[nH]c2n1 [Example 413] | – | – | – |

Continued, compound first:

| SMILES | GI50 [1] | IC50 [2] | inhibition at 1 µM [3] | inhibition at 0.25 µM [3] | inhibition at 0.5 µM [3] |
| --- | --- | --- | --- | --- | --- |
| CNc1nc(Nc2cc(F)c(S(=O)(=O)N3CCC(N4CCOCC4)CC3)cc2OC)nc2[nH]cc(C(F)(F)F)c12 [Example 231, N^2-(5-fluoro-2-methoxy-4-((4-morpholinopiperidin-1-yl)sulfonyl)phenyl)-N^4-methyl-5-(trifluoromethyl)-7H-pyrrolo[2,3-d]pyrimidine-2,4-diamine] | 101 to 300 nM | < 100 nM | – | – | – |
| N#Cc1c[nH]c2nc(Nc3ccc(C(=O)N4CCOCC4)c4c3OCCO4)nc(NCC3CCCC3)c12 [Example 133, 4-((cyclopentylmethyl)amino)-2-((8-(morpholine-4-carbonyl)-2,3-dihydrobenzo[b][1,4]dioxin-5-yl)amino)-7H-pyrrolo[2,3-d]pyrimidine-5-carbonitrile] | 101 to 300 nM | 301 to 1000 nM | – | – | – |
| CNc1nc(Nc2ccc(C(=O)N3CCC(N4CCOCC4)CC3)c3c2OCC3)nc2[nH]cc(C(F)(F)F)c12 [Example 217, (7-((4-(methylamino)-5-(trifluoromethyl)-7H-pyrrolo[2,3-d]pyrimidin-2-yl)amino)-2,3-dihydrobenzofuran-4-yl)(4-morpholinopiperidin-1-yl)methanone] | – | < 100 nM | 77.9% | 32% | 63.7% |
| N#Cc1c[nH]c2nc(Nc3ccc(C(=O)N4CCC(N5CCOCC5)CC4)c4c3OCCO4)nc(C3CC3)c12 [Example 221, 4-cyclopropyl-2-((8-(4-morpholinopiperidine-1-carbonyl)-2,3-dihydrobenzo[b][1,4]dioxin-5-yl)amino)-7H-pyrrolo[2,3-d]pyrimidine-5-carbonitrile] | – | < 100 nM | – | – | – |
| COc1cc(S(=O)(=O)N2CCC(N3CCOCC3)CC2)ccc1Nc1nc(C2CC2)c2c(C#N)c[nH]c2n1 [Example 224, 4-cyclopropyl-2-((2-methoxy-4-((4-morpholinopiperidin-1-yl)sulfonyl)phenyl)amino)-7H-pyrrolo[2,3-d]pyrimidine-5-carbonitrile] | – | 101 to 300 nM | 39.9% | 3.6% | 15.6% |
